In patent US10450297B2, “Sulfonyl amide derivatives for the treatment of abnormal cell growth” (Pfizer, Inc., priority 2007, dated 2019):
pIC50: −log10 of the molar value.

Molecular target: FAK kinase (catalytic construct FAK(410-689)) (Homo sapiens (Human), UniProt Q05397)
Assay: FAKcd kinase ELISA (inhibition of poly-glu-tyr phosphorylation by FAK(410-689))
Assay type: biochemical
Settings: 50 μM final ATP

Chain of FAK kinase (catalytic construct FAK(410-689)) (Q05397 410-689): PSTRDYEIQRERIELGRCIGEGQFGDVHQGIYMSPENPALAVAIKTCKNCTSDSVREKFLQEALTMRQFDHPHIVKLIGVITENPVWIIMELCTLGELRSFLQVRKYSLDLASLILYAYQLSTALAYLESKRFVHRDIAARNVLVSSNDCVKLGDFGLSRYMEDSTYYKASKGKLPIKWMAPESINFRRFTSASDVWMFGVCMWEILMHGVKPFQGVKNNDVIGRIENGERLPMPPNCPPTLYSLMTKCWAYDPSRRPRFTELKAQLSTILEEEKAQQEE

SMILES | pIC50
COCCNCc1ccc(Nc2ncc(C(F)(F)F)c(NCc3cccnc3N(C)S(C)(=O)=O)n2)cc1 [Compound 388, N-{3-[({2-((4-{[(2-methoxyethyl)amino]methyl}phenyl)amino]-5-(trifluoromethyl)pyrimidin-4-yl}amino)methyl]pyridin-2-yl}-N-methylmethane-sulfonamide] | > 9.23
CN(c1ncccc1CNc1nc(Nc2ccc(C#N)c(O)c2)ncc1C(F)(F)F)S(C)(=O)=O [Compound 390, N-{3-[({2-[(4-cyano-3-hydroxyphenyl)amino]-5-(trifluoromethyl)pyrimidin-4-yl}amino)methyl]pyridin-2-yl}-N-methylmethane-sulfonamide] | 9.13
CN(c1nccnc1CNc1nc(Nc2ccc(C#N)c(O)c2)ncc1C(F)(F)F)S(C)(=O)=O [Compound 391, N-{3-[({2-[(4-cyano-3-hydroxyphenyl)amino]-5-(trifluoromethyl)pyrlmldin-4-yl}amino)methyl]pyrazin-2-yl}-N-methylmethane-sulfonamide] | 8.91
CN(c1cccc(CNc2nc(Nc3ccc(C#N)c(O)c3)ncc2C(F)(F)F)c1)S(C)(=O)=O [Compound 392, N-{3-[({2-[(4-cyano-3-hydroxyphenyl)amino]-5-(trifluoromethyl)pyrimidin-4-yl}amino)methyl]phenyl}-N-methylmethanesulfonamide] | 8.35
CS(=O)(=O)c1cccc(CNc2nc(Nc3ccc(C#N)c(O)c3)ncc2C(F)(F)F)c1 [Compound 393, 2-hydroxy-4-{[4-{[3-(methylsulfonyl)benzyl]amino}-5-(trifluoromethyl)pyrimidin-2-yl]amino}benzonitrile] | 8.13
CN(c1ncccc1CNc1nc(Nc2ccc(C(N)=O)c(O)c2)ncc1C(F)(F)F)S(C)(=O)=O [Compound 394, 2-hydroxy-4-({4-[({2-[methyl(methylsulfonyl)amino)pyridin-3-yl}methyl)amino]-5-(trifluoromethyl)pyrimidin-2-yl}amino)benzamide] | > 9.23
CN(c1nccnc1CNc1nc(Nc2ccc(C(N)=O)c(O)c2)ncc1C(F)(F)F)S(C)(=O)=O [Compound 395, 2-hydroxy-4-({4-(({3-[methyl(methylsulfonyl)amino]pyrazin-2-yl}methyl)amino]-5-(trifluoromethyl)pyrimidin-2-yl}amino)benzamide] | 9.07
CN(c1cccc(CNc2nc(Nc3ccc(C(N)=O)c(O)c3)ncc2C(F)(F)F)c1)S(C)(=O)=O [Compound 396, 2-hydroxy-4-{[4-({3-[methyl(methylsulfonyl)amino]benzyl}amino)-5-(trifluoromethyl)pyrimidin-2-yl]amino}bertzamide] | 8.50
CC(=O)NCC(=O)Nc1cccc(Nc2ncc(C(F)(F)F)c(NCc3nccnc3N(C)S(C)(=O)=O)n2)c1 [Compound 397, N-2-acetyl-N-[3-({4-[({3-[methyl(methylsulfonyl)amino]pyrazin-2-yl}methyl)amino]-5-(trifluoromethyl)pyrimidin-2-yl}amino)phenyl]glycinamide] | 8.82
CC(=O)NCC(=O)Nc1cccc(Nc2ncc(C(F)(F)F)c(NCc3ncccc3N(C)S(C)(=O)=O)n2)c1 [Compound 398, N~2~-acetyl-N-[3-({4-[({3-[methyl(methylsulfonyl)amino]pyridin-2-yl}methyl)amino]-5-(trifluoromethyl)pyrimidin-2-yl}amino)phenyl]glycinamide] | 8.66
CC(=O)NCC(=O)Nc1cccc(Nc2ncc(C(F)(F)F)c(NCc3cccc(N(C)S(C)(=O)=O)c3)n2)c1 [Compound 399, N-2-acetyl-N-(3-{[4-({3-[methyl(methylsulfonyl)amino]benzyl}amino)-5-(trifluoromethyl)pyrimidin-2-yl]amino}phenyl)glycinamide] | 8.25
CNC(=O)c1ccc(Nc2ncc(C(F)(F)F)c(NCc3nccnc3N(C)S(C)(=O)=O)n2)cc1C [Compound 400, N,2-dimethyl-4-({4-[({3-[methyl(methylsulfonyl)amino]pyrazin-2-yl)methyl)amino]-5-(trifluoromethyl)pyrimidin-2-yl}amino)benzamide] | 9.18
CNC(=O)c1ccc(Nc2ncc(C(F)(F)F)c(NCc3nccnc3N(C)S(C)(=O)=O)n2)c(C)c1 [Compound 401, N,3-dimethyl-4-({4-[({3-[methyl(methylsulfonyl)amino]pyrazin-2-yl}methyl)amino]-5-(trifluoromethyl)pyrimidin-2-yl}amino)benzamide] | 8.93
CNC(=O)c1ccc(Nc2ncc(C(F)(F)F)c(NCc3cccnc3N(C)S(C)(=O)=O)n2)cc1C [Compound 402, N,2-dimethyl-4-({4-[({2-[methyl(methylsulfonyl)amino]pyridin-3-yl}methyl)amino]-5-(trifluoromethyl)pyrimidin-2-yl}amino)benzamide] | > 9.23
CNC(=O)c1ccc(Nc2ncc(C(F)(F)F)c(NCc3cccnc3N(C)S(C)(=O)=O)n2)c(C)c1 [Compound 403, N,3-dimethyl-4-({4-[({2-[methyl(methylsulfonyl)amino]pyridin-3-yl}methyl)amino)-5-(trifluoromethyl)pyrimidin-2-yl}amino)benzamide] | 8.96
CN(c1ccnc(CNc2nc(Nc3ccc(C(N)=O)cc3)ncc2C(F)(F)F)c1)S(C)(=O)=O [Compound 404, 4-({4-[({4-[methyl(methylsulfonyl)amino]pyridin-2-yl}methyl)amino]-5-(trifluoromethyl)pyrimidin-2-yl}amino)benzamide] | 8.68
Cc1cc(C(N)=O)ccc1Nc1ncc(C(F)(F)F)c(NCc2cc(N(C)S(C)(=O)=O)ccn2)n1 [Compound 405, 3-methyl-4-({4-[({4-[methyl(methylsulfonyl)amino]pyridin-2-yl}methyl)amino]-5-(trifluoromethyl)pyrimidin-2-yl}amino)benzamide] | 7.76
Cc1cc(Nc2ncc(C(F)(F)F)c(NCc3cc(N(C)S(C)(=O)=O)ccn3)n2)ccc1C(N)=O [Compound 406, 2-methyl-4-({4-[({4-[methyl(methylsulfonyl)amino]pyridin-2-yl}methyl)amino]-5-(trifluoromethyl)pyrimidin-2-yl}amino)benzamide] | 9.11
CN(c1ncccc1CNc1nc(Nc2ccc(/C(N)=N/O)cc2)ncc1C(F)(F)F)S(C)(=O)=O [Compound 407, N′-hydroxy-4-({4-[({2-[methyl(methylsulfonyl)amino]pyridin-3-yl}methyl)amino]-5-(trifluoromethyl)pyrimidin-2-yl}amino)benzenecarboximidamide] | > 9.23
CN(c1ncccc1CNc1nc(Nc2cccc(C(N)=NO)c2)ncc1C(F)(F)F)S(C)(=O)=O [Compound 408, N′-hydroxy-3-({4-[({2-[methyl(methylsulfonyl)amino]pyridin-3-yl}methyl)amino]-5-(trifluoromethyl)pyrimidin-2-yl}amino)benzenecarboximidamide] | 8.64
CN(c1nccnc1CNc1nc(Nc2ccc(C3COC(C)(C)O3)cc2)ncc1C(F)(F)F)S(C)(=O)=O (stereo not drawn) [Compound 409, N-[3-({[2-{[4-(2,2-dimethyl-1,3-dioxolan-4-yl)phenyl]amino}-5-(trifluoromethyl)pyrimidin-4-yl]amino}methyl)pyrazin-2-yl]-N-methylmethane-sulfonamide] | 8.32
